Measurements reported in US12240816B2, “Deuterated compounds and uses thereof” (Aldeyra Therapeutics, Inc., priority 2015, dated 2025).
“And” between values parts separate entries of the source, which are not always exact repeats. Equal entries are not always repeated. “Also recorded” adds a separate entry of the source. Marks after values point to notes of the source that are not given here.

Experiments:
[1] = target: enzyme and uptake assay panel targets (Table 36) (Mus musculus, UniProt P29477); experiment: biochemical; assay type: biochemical; settings: inducible NOS; reference compound
[2] = tested on: rat hippocampal cultures; experiment: Propidium iodide cell death assay, protection from hydrogen peroxide toxicity; assay type: cell-based; settings: for Cell death (Propidium Iodide), % of Control / Cell death (Propidium Iodide), Mean / Cell death (Propidium Iodide), individual values: 5 hours; for % of Control (PI) / PI signal, replicate wells: CBD 10 μM + 10 μM hydrogen peroxide; for % of Control (PI) / PI signal, replicate wells / EC50 ± SE / Full Efficacy Concentration / No effect Concentration / protection from cell death: 5 h; for EC50 ± SE / Full Efficacy Concentration / No effect Concentration: Example 13, 0.1 to 300 μM tested; for EC50 ± SE / Full Efficacy Concentration / No effect Concentration / protection from cell death: PI, 10 μM hydrogen peroxide; for protection from cell death: 0.1 to 300 μM
[3] = tested on: rat hippocampal cultures; experiment: cells; assay type: cell-based; settings: for Neuronal viability (CFDA), % of Control / Neuronal viability (CFDA), Mean / Neuronal viability (CFDA), individual values: 5 hours; for % of Control (CFDA) / CFDA signal, Mean: CBD 10 μM + 10 μM hydrogen peroxide; for % of Control (CFDA) / CFDA signal, Mean / EC50 ± SE / Full Efficacy Concentration / No effect Concentration: 5 h; for EC50 ± SE / Full Efficacy Concentration / No effect Concentration: Example 13, CFDA, 10 μM hydrogen peroxide, 0.1 to 300 μM tested
[4] = target: enzyme and uptake assay panel targets (Table 36) (Homo sapiens, UniProt O00408); experiment: biochemical; assay type: biochemical; settings: PDE2A1 (h); reference compound
[5] = target: 5-HT2B (h) (Homo sapiens, UniProt P41595); experiment: 5-HT2B (h) (agonist radioligand) binding assay
[6] = target: T1, MT3 (ML2) (Mesocricetus auratus, UniProt A0ABM2YAB8); experiment: MT3 (ML2) (agonist radioligand) binding assay; settings: MT3 (ML2) (agonist radioligand)
T1 sequence (A0ABM2YAB8 1-231): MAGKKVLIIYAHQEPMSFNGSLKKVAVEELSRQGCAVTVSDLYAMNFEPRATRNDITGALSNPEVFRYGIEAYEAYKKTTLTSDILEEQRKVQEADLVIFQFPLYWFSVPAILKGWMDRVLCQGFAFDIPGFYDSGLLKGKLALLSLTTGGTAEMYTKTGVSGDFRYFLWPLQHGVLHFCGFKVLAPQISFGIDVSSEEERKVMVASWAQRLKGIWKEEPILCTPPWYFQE

[7] = target: T2, PR (h) (Homo sapiens, UniProt P06401); experiment: PR (h) (agonist radioligand) binding assay
T2 construct: T47D cells (cytosol)
T2 sequence (P06401 679-933): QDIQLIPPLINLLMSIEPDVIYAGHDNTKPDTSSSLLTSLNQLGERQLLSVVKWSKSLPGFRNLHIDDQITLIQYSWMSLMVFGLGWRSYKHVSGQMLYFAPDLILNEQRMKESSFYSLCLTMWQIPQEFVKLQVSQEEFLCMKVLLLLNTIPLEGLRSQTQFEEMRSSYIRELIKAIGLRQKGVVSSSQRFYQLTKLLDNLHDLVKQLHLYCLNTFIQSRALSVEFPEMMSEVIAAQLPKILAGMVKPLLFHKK

[8] = 0.1 μM + 10 μM hydrogen peroxide, DMSO
[9] = 1 μM + 10 μM hydrogen peroxide, DMSO
[10] = 10 μM + 10 μM hydrogen peroxide, DMSO
[11] = 100 μM + 10 μM hydrogen peroxide, DMSO
[12] = 300 μM + 10 μM hydrogen peroxide, DMSO
[13] = Experiment 10 (vehicle plates, Tables 19 and 20)
[14] = positive control CBD + HP 10 μM
[15] = Experiment 9 (vehicle plates, Tables 17 and 18)

Chain of 5-HT2B (h) (P41595 whole entry): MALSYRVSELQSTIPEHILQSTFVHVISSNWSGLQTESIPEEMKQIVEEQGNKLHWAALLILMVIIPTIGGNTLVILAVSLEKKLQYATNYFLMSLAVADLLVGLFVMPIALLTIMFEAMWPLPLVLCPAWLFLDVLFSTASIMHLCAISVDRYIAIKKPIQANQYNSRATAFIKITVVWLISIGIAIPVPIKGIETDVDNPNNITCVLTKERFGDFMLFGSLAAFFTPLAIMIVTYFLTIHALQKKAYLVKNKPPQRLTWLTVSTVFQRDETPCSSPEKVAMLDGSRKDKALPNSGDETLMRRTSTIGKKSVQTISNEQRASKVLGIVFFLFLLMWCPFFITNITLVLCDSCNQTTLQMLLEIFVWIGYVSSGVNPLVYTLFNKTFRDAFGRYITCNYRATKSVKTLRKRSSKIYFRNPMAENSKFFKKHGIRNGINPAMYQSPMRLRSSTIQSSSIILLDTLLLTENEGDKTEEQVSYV
Chain of enzyme and uptake assay panel targets (Table 36) (Homo sapiens, UniProt O00408) (O00408 whole entry): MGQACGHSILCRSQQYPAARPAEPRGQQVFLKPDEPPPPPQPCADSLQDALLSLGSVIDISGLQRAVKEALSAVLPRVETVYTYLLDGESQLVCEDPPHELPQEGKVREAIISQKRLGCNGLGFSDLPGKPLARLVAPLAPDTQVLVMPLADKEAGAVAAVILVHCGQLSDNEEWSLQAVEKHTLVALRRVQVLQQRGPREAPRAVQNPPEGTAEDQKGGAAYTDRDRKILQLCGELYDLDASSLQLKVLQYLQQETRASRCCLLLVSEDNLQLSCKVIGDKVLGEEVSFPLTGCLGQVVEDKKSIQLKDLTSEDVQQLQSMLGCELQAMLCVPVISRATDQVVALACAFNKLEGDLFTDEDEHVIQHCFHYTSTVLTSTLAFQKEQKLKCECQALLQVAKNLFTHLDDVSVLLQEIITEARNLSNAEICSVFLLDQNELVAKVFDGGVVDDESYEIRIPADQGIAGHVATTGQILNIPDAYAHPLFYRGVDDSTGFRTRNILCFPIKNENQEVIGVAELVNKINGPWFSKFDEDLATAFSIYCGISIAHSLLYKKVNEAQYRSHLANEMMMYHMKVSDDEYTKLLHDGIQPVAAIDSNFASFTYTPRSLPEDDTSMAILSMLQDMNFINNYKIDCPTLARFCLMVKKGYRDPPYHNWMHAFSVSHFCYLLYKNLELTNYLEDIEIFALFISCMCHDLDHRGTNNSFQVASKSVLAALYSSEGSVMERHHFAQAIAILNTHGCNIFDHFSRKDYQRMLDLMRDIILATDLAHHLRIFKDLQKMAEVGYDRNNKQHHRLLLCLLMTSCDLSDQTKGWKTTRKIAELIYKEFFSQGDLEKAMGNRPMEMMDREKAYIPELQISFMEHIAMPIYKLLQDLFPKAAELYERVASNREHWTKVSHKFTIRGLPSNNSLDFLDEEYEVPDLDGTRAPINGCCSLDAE
Chain of enzyme and uptake assay panel targets (Table 36) (Mus musculus, UniProt P29477) (P29477 whole entry): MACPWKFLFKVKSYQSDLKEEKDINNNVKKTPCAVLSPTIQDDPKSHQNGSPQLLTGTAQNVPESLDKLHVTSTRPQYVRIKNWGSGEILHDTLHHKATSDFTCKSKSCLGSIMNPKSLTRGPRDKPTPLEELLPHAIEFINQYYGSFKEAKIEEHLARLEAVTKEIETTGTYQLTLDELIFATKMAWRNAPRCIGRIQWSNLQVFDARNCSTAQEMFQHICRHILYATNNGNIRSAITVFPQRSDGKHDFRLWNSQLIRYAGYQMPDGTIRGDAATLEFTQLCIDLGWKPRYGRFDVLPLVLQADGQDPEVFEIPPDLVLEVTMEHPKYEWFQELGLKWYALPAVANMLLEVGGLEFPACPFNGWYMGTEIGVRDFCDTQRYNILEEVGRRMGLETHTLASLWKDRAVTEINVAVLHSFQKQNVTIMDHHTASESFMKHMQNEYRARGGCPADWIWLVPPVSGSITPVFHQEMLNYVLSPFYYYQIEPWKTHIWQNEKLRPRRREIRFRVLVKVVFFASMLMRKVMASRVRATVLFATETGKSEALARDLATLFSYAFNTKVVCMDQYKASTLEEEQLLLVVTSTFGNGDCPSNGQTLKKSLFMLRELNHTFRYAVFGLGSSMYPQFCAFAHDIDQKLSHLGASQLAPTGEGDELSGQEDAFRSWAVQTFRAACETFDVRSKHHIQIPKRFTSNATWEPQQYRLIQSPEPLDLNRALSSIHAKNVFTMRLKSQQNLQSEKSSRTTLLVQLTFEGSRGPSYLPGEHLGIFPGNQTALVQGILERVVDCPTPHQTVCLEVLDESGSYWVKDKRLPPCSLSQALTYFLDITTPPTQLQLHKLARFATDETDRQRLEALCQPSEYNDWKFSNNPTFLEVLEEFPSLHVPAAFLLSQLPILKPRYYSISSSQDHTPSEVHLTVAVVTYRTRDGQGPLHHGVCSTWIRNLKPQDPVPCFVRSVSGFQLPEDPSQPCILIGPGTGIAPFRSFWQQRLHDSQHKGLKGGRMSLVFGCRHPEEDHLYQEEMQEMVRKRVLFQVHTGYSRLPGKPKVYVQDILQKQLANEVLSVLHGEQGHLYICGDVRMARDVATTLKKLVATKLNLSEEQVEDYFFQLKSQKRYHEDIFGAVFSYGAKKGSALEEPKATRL

## CC(=N)NCc1cccc(CN)c1 [Compound 1400W]
[1]
  IC50: 0.04 µM
  nH: 1.4

## CC(C)(O)c1nc2ccccc2nc1N [ALD2]
[2]; [8]
  Cell death (Propidium Iodide), % of Control: 172 ± 5%
  Cell death (Propidium Iodide), Mean: 274
  Cell death (Propidium Iodide), individual values: 258 and 294 (2×) and 259 and 266
[2]; [9]
  Cell death (Propidium Iodide), % of Control: 166 ± 9%
  Cell death (Propidium Iodide), Mean: 264
  Cell death (Propidium Iodide), individual values: 229 and 294 and 258 and 242 and 298
[2]; [10]
  Cell death (Propidium Iodide), % of Control: 167 ± 13%
  Cell death (Propidium Iodide), Mean: 266
  Cell death (Propidium Iodide), individual values: 293 and 329 and 258 and 225 (2×)
[2]; [11]
  Cell death (Propidium Iodide), % of Control: 157 ± 8%
  Cell death (Propidium Iodide), Mean: 249
  Cell death (Propidium Iodide), individual values: 225 (2×) and 258 and 242 and 294
[2]; [12]
  Cell death (Propidium Iodide), % of Control: 182 ± 8%
  Cell death (Propidium Iodide), Mean: 290
  Cell death (Propidium Iodide), individual values: 302 and 294 (2×) and 320 and 242
[3]; [8]
  Neuronal viability (CFDA), % of Control: 67 ± 3%
  Neuronal viability (CFDA), Mean: 38243
  Neuronal viability (CFDA), individual values: 40839 (3×) and 34813 and 33885
[3]; [9]
  Neuronal viability (CFDA), % of Control: 67 ± 4%
  Neuronal viability (CFDA), Mean: 38073
[3]; [10]
  Neuronal viability (CFDA), % of Control: 71 ± 5%
  Neuronal viability (CFDA), Mean: 40512
[3]; [11]
  Neuronal viability (CFDA), % of Control: 68 ± 4%
  Neuronal viability (CFDA), Mean: 38674
[3]; [12]
  Neuronal viability (CFDA), % of Control: 72 ± 4%
  Neuronal viability (CFDA), Mean: 41274

## CCCCCC[C@@H]([C@@H](C)O)n1cnc2c(N)ncnc21 (racemic) [EHNA]
[4]
  IC50: 1.1 µM
  nH: 0.8

## C=C(C)[C@@H]1CCC(C)=C[C@H]1c1c(O)cc(CCCCC)cc1O [CBD, cannabidiol, reference compound]
[2]; [13]
  % of Control (PI): 112 ± 7%
  PI signal, replicate wells: 184 and 156 and 180
[2]; Table 10 plate
  % of Control (PI): 97 ± 9%
  PI signal, replicate wells: 117 and 180 and 121 and 192
[2]; Table 12 plate
  % of Control (PI): 102 ± 11%
  PI signal, replicate wells: 125 and 117 (2×) and 180 (2×)
[2]; Table 14 plate
  % of Control (PI): 108 ± 11%
  PI signal, replicate wells: 121 and 200 and 180 and 117
[2]; Table 16 plate
  % of Control (PI): 103 ± 8%
  PI signal, replicate wells: 129 and 184 and 180 and 117
[2]; [14]
  Cell death (Propidium Iodide), % of Control: 93 ± 9% and 91 ± 10% and 91 ± 8%
  Cell death (Propidium Iodide), Mean: 154* and 136* and 145*
  Cell death (Propidium Iodide), individual values: 171 and 123 and 197 and 119 and 83 and 147 and 164 and 139 and 104 and 175
[3]; [15]
  % of Control (CFDA): 99 ± 7%
  CFDA signal, Mean: 43543*
[3]; Table 9 plate
  % of Control (CFDA): 105 ± 4%
  CFDA signal, Mean: 48894*
[3]; Table 11 plate
  % of Control (CFDA): 103 ± 5%
  CFDA signal, Mean: 44366*
[3]; Table 13 plate
  % of Control (CFDA): 102 ± 12%
  CFDA signal, Mean: 40858*
[3]; Table 15 plate
  % of Control (CFDA): 100 ± 7%
  CFDA signal, Mean: 41741*
[3]; [14]
  Neuronal viability (CFDA), % of Control: 101 ± 3% and 97 ± 4%
  Neuronal viability (CFDA), Mean: 57221* and 57590* and 55059*

## COc1cc(CC(C)N)c(OC)cc1I (racemic) [(±)DO1]
[5]
  IC50: 0.0069 µM
  nH: 0.9

## COc1ccc2[nH]cc(CCNC(C)=O)c2c1 [melatonin]
[6]
  IC50: 0.072 µM
  Ki: 0.071 µM
  nH: 0.8

## CC(C)(O)c1nc2ncccc2cc1N [ALD-5]
[2]; DMSO
  EC50 ± SE: Inactive
  Full Efficacy Concentration: Inactive
  No effect Concentration: Inactive
  protection from cell death: no statistically significant protection from cell death; also recorded: did not produce statistically significant protection from cell death
[3]; DMSO
  EC50 ± SE: Inactive
  Full Efficacy Concentration: Inactive
  No effect Concentration: Inactive

## CCC(=O)[C@@]1(C)CC[C@H]2[C@@H]3CCC4=CC(=O)CCC4=C3CC[C@@]21C [promegestone]
[7]
  IC50: 0.00047 µM
  Ki: 0.00038 µM
  nH: 1.6

## CC(C)(O)c1nc2ccccc2nc1N [ALD-2]
[2]; DMSO
  EC50 ± SE: Inactive
  Full Efficacy Concentration: Inactive
  No effect Concentration: Inactive
  protection from cell death: no statistically significant protection from cell death; also recorded: did not produce statistically significant protection from cell death
[3]; DMSO
  EC50 ± SE: Inactive
  Full Efficacy Concentration: Inactive
  No effect Concentration: Inactive

## CC(C)(O)c1nc2ncccc2cc1N [ALD5]
[2]; [8]
  Cell death (Propidium Iodide), % of Control: 202 ± 15%
  Cell death (Propidium Iodide), Mean: 301
  Cell death (Propidium Iodide), individual values: 225 and 325 and 294 (2×) and 366
[2]; [9]
  Cell death (Propidium Iodide), % of Control: 196 ± 1%
  Cell death (Propidium Iodide), Mean: 292
  Cell death (Propidium Iodide), individual values: 285 and 294 (4×)
[2]; [10]
  Cell death (Propidium Iodide), % of Control: 191 ± 11%
  Cell death (Propidium Iodide), Mean: 285
  Cell death (Propidium Iodide), individual values: 294 (3×) and 320 and 225
[2]; [11]
  Cell death (Propidium Iodide), % of Control: 181 ± 7%
  Cell death (Propidium Iodide), Mean: 269
  Cell death (Propidium Iodide), individual values: 250 (2×) and 294 (2×) and 255
[2]; [12]
  Cell death (Propidium Iodide), % of Control: 205 ± 8%
  Cell death (Propidium Iodide), Mean: 305
  Cell death (Propidium Iodide), individual values: 294 (3×) and 293 and 352
[3]; [8]
  Neuronal viability (CFDA), % of Control: 69 ± 1%
  Neuronal viability (CFDA), Mean: 38942
[3]; [9]
  Neuronal viability (CFDA), % of Control: 66 ± 3%
  Neuronal viability (CFDA), Mean: 37447
[3]; [10]
  Neuronal viability (CFDA), % of Control: 65 ± 3%
  Neuronal viability (CFDA), Mean: 36940
[3]; [11]
  Neuronal viability (CFDA), % of Control: 66 ± 4%
  Neuronal viability (CFDA), Mean: 37605
[3]; [12]
  Neuronal viability (CFDA), % of Control: 74 ± 1%
  Neuronal viability (CFDA), Mean: 42249

## [2H]C([2H])([2H])C(O)(c1nc2ccc(Cl)cc2cc1N)C([2H])([2H])[2H] [ALD6]
[2]; [8]
  Cell death (Propidium Iodide), % of Control: 165 ± 15%
  Cell death (Propidium Iodide), Mean: 273
  Cell death (Propidium Iodide), individual values: 294 and 242 and 356 and 225 and 250
[2]; [9]
  Cell death (Propidium Iodide), % of Control: 120 ± 5%
  Cell death (Propidium Iodide), Mean: 198*
  Cell death (Propidium Iodide), individual values: 223 and 183 (2×) and 189 and 214
[2]; [10]
  Cell death (Propidium Iodide), % of Control: 107 ± 5%
  Cell death (Propidium Iodide), Mean: 176*
  Cell death (Propidium Iodide), individual values: 189 (2×) and 139 and 179 and 183
[2]; [11]
  Cell death (Propidium Iodide), % of Control: 108 ± 7%
  Cell death (Propidium Iodide), Mean: 178*
  Cell death (Propidium Iodide), individual values: 206 and 189 and 135 and 167 and 193
[2]; [12]
  Cell death (Propidium Iodide), % of Control: 107 ± 6%
  Cell death (Propidium Iodide), Mean: 176*
  Cell death (Propidium Iodide), individual values: 189 (2×) and 147 and 197 and 159
[3]; [8]
  Neuronal viability (CFDA), % of Control: 59 ± 3%
  Neuronal viability (CFDA), Mean: 34394
[3]; [9]
  Neuronal viability (CFDA), % of Control: 65 ± 5%
  Neuronal viability (CFDA), Mean: 38055
[3]; [10]
  Neuronal viability (CFDA), % of Control: 83 ± 4%
  Neuronal viability (CFDA), Mean: 48055*
[3]; [11]
  Neuronal viability (CFDA), % of Control: 98 ± 4%
  Neuronal viability (CFDA), Mean: 57123*
[3]; [12]
  Neuronal viability (CFDA), % of Control: 98 ± 4%
  Neuronal viability (CFDA), Mean: 56976*
  Neuronal viability (CFDA), individual values: 53184 (3×) and 59551 and 65778
